Source: patent US6737383B1, “Herbicidal oxadiazolidines” (priority 1999, dated 2004)

Assays:
[1] = test system: velvetleaf; assay: Test B pre/postemergence velvetleaf; assay type: in vivo, Abutilon theophrasti
In short: (§1)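 Herbicidal effect was estimated by eye on a ten-point control scale after plants spent twelve to sixteen days in a greenhouse following soil or foliar treatment. Foliar sprays targeted plants at one to four leaves; all doses were formulated in a non-phytotoxic solvent with surfactant.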

[2] = test system: bamyardgrass; assay: Test B flood test barnyardgrass; assay type: in vivo, Echinochloa crus-galli
In short: (§2)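 Plants were grown to the 2-leaf stage before treatment with test chemical, then held in a greenhouse for twelve to sixteen days. Injury was visually rated against untreated controls on a 0–10 scale, where 0 is no effect and 10 is complete control.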

[3] = test system: wheat; assay: Test B pre/postemergence wheat; assay type: in vivo, Triticum aestivum
In short: as §1

[4] = test system: sugar beet; assay: Test B pre/postemergence sugar beet; assay type: in vivo, Beta vulgaris
In short: as §1

[5] = test system: soybean; assay: Test B pre/postemergence soybean; assay type: in vivo, Glycine max
In short: as §1

[6] = test system: rape; assay: Test B pre/postemergence rape; assay type: in vivo, Brassica napus
In short: as §1

[7] = test system: duck salad; assay: Test B flood test duck salad; assay type: in vivo, Heteranthera limosa
In short: as §2

[8] = test system: cocklebur; assay: Test B pre/postemergence cocklebur; assay type: in vivo, Xanthium strumarium
In short: as §1

[9] = test system: bedstraw; assay: Test B pre/postemergence bedstraw; assay type: in vivo, Galium aparine
In short: as §1

[10] = test system: rice; assay: Test B flood test rice; assay type: in vivo, Oryza sativa
In short: as §2

[11] = test system: crabgrass; assay: Test B pre/postemergence crabgrass; assay type: in vivo, Digitaria sanguinalis
In short: as §1

[12] = test system: pigweed; assay: Test B pre/postemergence pigweed; assay type: in vivo, Amaranthus retroflexus
In short: as §1

[13] = test system: blackgrass; assay: Test B pre/postemergence blackgrass; assay type: in vivo, Alopecurus myosuroides
In short: as §1

[14] = test system: morningglory; assay: Test B pre/postemergence morningglory; assay type: in vivo, Ipomoea hederacea
In short: as §1

[15] = test system: purple nutsedge; assay: Test B pre/postemergence purple nutsedge; assay type: in vivo, Cyperus rotundus
In short: as §1

[16] = test system: corn; assay: Test B pre/postemergence corn; assay type: in vivo, Zea mays
In short: as §1

[17] = test system: wild oat; assay: Test B pre/postemergence wild oat; assay type: in vivo, Avena fatua
In short: as §1

[18] = test system: giant foxtail; assay: Test B pre/postemergence giant foxtail; assay type: in vivo, Setaria faberii
In short: as §1

[19] = test system: smallflower flatsedge; assay: Test B flood test smallflower flatsedge; assay type: in vivo, Cyperus difformis
In short: as §2

[20] = test system: surinam grass; assay: Test B pre/postemergence surinam grass; assay type: in vivo, Brachiaria decumbens
In short: as §1

[21] = Preemergence, Rate 62 g/ha, scale of 0 to 10 where 0 is no effect and 10 is complete control
[22] = Preemergence, Rate 250 g/ha, scale of 0 to 10 where 0 is no effect and 10 is complete control
[23] = Preemergence, Rate 500 g/ha, scale of 0 to 10 where 0 is no effect and 10 is complete control
[24] = Rate 125 g/ha, Preemergence, scale of 0 to 10 where 0 is no effect and 10 is complete control
[25] = Rate 500 g/ha, Postemergence, scale 0 to 10, 0 no effect, 10 complete control
[26] = Rate 62 g/ha, headed Pre-emergence (flood test species), scale 0 to 10 (0 no effect, 10 complete control)
[27] = Rate 125 g/ha, Pre-emergence, flood test species, scale 0 to 10 where 0 is no effect and 10 is complete control
[28] = Rate 250 g/ha, Pre-emergence, flood-test species, scale 0 to 10, 0 is no effect, 10 is complete control
[29] = Rate 500 g/ha, Pre-emergence, flood test species, scale 0 to 10 (0 no effect, 10 complete control)
[30] = Rate 62 g/ha, Postemergence, scale of 0 to 10 where 0 is no effect and 10 is complete control
[31] = Rate 125 g/ha, Postemergence, scale 0 to 10

CCCCCC#CCn1c(=O)on(C(=O)N(c2ccc(F)cc2)C(C)C)c1=O [Compound 254]
7: Sugarbeets plant response rating [4, 25]
0: Velvetleaf plant response rating [1, 21] | Velvetleaf plant response rating [1, 22] | Plant response rating, Velvetleaf [1, 23] | Velvetleaf plant response rating [1, 24] | Barnyardgrass plant response rating [2, 26] | Barnyardgrass plant response rating [2, 27] | Barnyardgrass plant response rating [2, 28] | Barnyardgrass plant response rating [2, 29] | Wheat plant response rating [3, 21] | Wheat plant response rating [3, 22] | Plant response rating, Wheat [3, 23] | Wheat plant response rating [3, 24] | Wheat plant response rating [3, 25] | Sugarbeets plant response rating [4, 21] | Soybean plant response rating [5, 21] | Soybean plant response rating [5, 22] | Plant response rating, Soybean [5, 23] | Soybean plant response rating [5, 24] | Rape plant response rating [6, 21] | Rape plant response rating [6, 24] | Ducksalad plant response rating [7, 26] | Ducksalad plant response rating [7, 27] | Ducksalad plant response rating [7, 28] | Ducksalad plant response rating [7, 29] | Cocklebur plant response rating [8, 21] | Cocklebur plant response rating [8, 22] | Plant response rating, Cocklebur [8, 23] | Cocklebur plant response rating [8, 30] | Cocklebur plant response rating [8, 31] | Cocklebur plant response rating [8, 24] | Plant response rating (0 to 10; 0 is no effect, 10 is complete control), Cocklebur ([8]; Rate 250 g/ha, Postemergence) | Cocklebur plant response rating [8, 25] | Bedstraw plant response rating [9, 21] | Bedstraw plant response rating [9, 22] | Plant response rating, Bedstraw [9, 23] | Bedstraw plant response rating [9, 30] | Bedstraw plant response rating [9, 24] | Rice plant response rating [10, 26] | Rice plant response rating [10, 27] | Rice plant response rating [10, 28] | Rice plant response rating [10, 29] | Crabgrass plant response rating [11, 21] | Crabgrass plant response rating [11, 22] | Crabgrass plant response rating [11, 24] | Plant response rating (0 to 10; 0 is no effect, 10 is complete control), Crabgrass ([11]; Rate 250 g/ha, Postemergence) | Crabgrass plant response rating [11, 25] | Redroot pigweed plant response rating [12, 21] | Redroot pigweed plant response rating [12, 22] | Plant response rating, Redroot pigweed [12, 23] | Redroot pigweed plant response rating [12, 24] | Blackgrass plant response rating [13, 21] | Blackgrass plant response rating [13, 22] | Blackgrass plant response rating [13, 30] | Blackgrass plant response rating [13, 31] | Blackgrass plant response rating [13, 24] | Plant response rating (0 to 10; 0 is no effect, 10 is complete control), Blackgrass ([13]; Rate 250 g/ha, Postemergence) | Blackgrass plant response rating [13, 25] | Morningglory plant response rating [14, 21] | Morningglory plant response rating [14, 22] | Plant response rating, Morningglory [14, 23] | Morningglory plant response rating [14, 24] | Nutsedge plant response rating [15, 21] | Nutsedge plant response rating [15, 22] | Plant response rating, Nutsedge [15, 23] | Nutsedge plant response rating [15, 24] | Plant response rating (0 to 10; 0 is no effect, 10 is complete control), Nutsedge ([15]; Rate 250 g/ha, Postemergence) | Nutsedge plant response rating [15, 25] | Corn plant response rating [16, 21] | Corn plant response rating [16, 22] | Plant response rating, Corn [16, 23] | Corn plant response rating [16, 30] | Corn plant response rating [16, 31] | Corn plant response rating [16, 24] | Plant response rating (0 to 10; 0 is no effect, 10 is complete control), Corn ([16]; Rate 250 g/ha, Postemergence) | Corn plant response rating [16, 25] | Wild oats plant response rating [17, 21] | Wild oats plant response rating [17, 22] | Wild oats plant response rating [17, 24] | Wild oats plant response rating [17, 25] | Giant foxtail plant response rating [18, 21] | Plant response rating (0 to 10; 0 is no effect, 10 is complete control), Giant foxtail ([18]; Rate 250 g/ha, Postemergence) | Giant foxtail plant response rating [18, 25] | S. Flatsedge plant response rating [19, 26] | S. Flatsedge plant response rating [19, 27] | S. Flatsedge plant response rating [19, 28] | S. Flatsedge plant response rating [19, 29] | B. signalgrass plant response rating [20, 21] | B. signalgrass plant response rating [20, 22] | Plant response rating, B. signalgrass [20, 23] | B. signalgrass plant response rating [20, 30] | B. signalgrass plant response rating ([20]; Rate 125 g/ha, Postemergence, scale 0 (no effect) to 10 (complete control)) | B. signalgrass plant response rating [20, 24] | Plant response rating (0 to 10; 0 is no effect, 10 is complete control), B. signalgrass ([20]; Rate 250 g/ha, Postemergence) | B. signalgrass plant response rating [20, 25]
3: Plant response rating, Crabgrass [11, 23] | Plant response rating (0 to 10; 0 is no effect, 10 is complete control), Redroot pigweed ([12]; Rate 250 g/ha, Postemergence) | Giant foxtail plant response rating [18, 24]
9: Plant response rating (0 to 10; 0 is no effect, 10 is complete control), Morningglory ([14]; Rate 250 g/ha, Postemergence) | Morningglory plant response rating [14, 25]
2: Velvetleaf plant response rating [1, 25] | Sugarbeets plant response rating [4, 22] | Sugarbeets plant response rating [4, 24] | Soybean plant response rating [5, 25] | Rape plant response rating [6, 22] | Plant response rating (0 to 10; 0 is no effect, 10 is complete control), Rape ([6]; Rate 250 g/ha, Postemergence) | Rape plant response rating [6, 25] | Plant response rating, Wild oats [17, 23]
4: Bedstraw plant response rating [9, 31] | Plant response rating (0 to 10; 0 is no effect, 10 is complete control), Bedstraw ([9]; Rate 250 g/ha, Postemergence) | Bedstraw plant response rating [9, 25] | Plant response rating, Blackgrass [13, 23]
6: Plant response rating, Sugarbeets [4, 23] | Plant response rating, Rape [6, 23] | Redroot pigweed plant response rating [12, 25] | Giant foxtail plant response rating [18, 22]
10: Plant response rating, Giant foxtail [18, 23]
